Measured values taken from patent US20050169994A1 (priority 2003, published 2005).
Counter-ions that a name gives are not always drawn. Like-named read-outs stand apart in the source and are kept apart here.

How the values were obtained:
[1] = pH 7.1
[2] = cited from earlier work
[3] = R and S isomers, systemic circulation; cited from earlier work
[4] = pH-solubility profile for carvedilol; details: aqueous medium
[5] = Solubility in water at 25° C. over time, with pH of filtered solution
Description: Aliquots were taken out at various time-point, filtered through 0.45 μm Acrodisc GHP filter.

SMILES: COc1ccccc1OCCNCC(O)COc1cccc2[nH]c3ccccc3c12 (stereo not drawn) [Carvedilol]
- solubility [1]: 20 to 30 µg/mL
- solubility ([2]; above a pH of 9.0): < 1 µg/mL
- saturation solubility ([2]; pH=5, room temperature): about 100 μg/mL
- saturation solubility ([2]; pH=7, room temperature): about 23 μg/mL
- alpha elimination phase [3]: about 1.5 hours
- solubility thermodynamic [4]: ≤ 100 µg/mL

SMILES: COc1ccccc1OCCNCC(O)COc1cccc2[nH]c3ccccc3c12 (stereo not drawn) [HBr salt, carvedilol hydrobromide]
- aqueous solubility compared with free base [5]: much better aqueous solubility than the free base

SMILES: COc1ccccc1OCCNCC(O)COc1cccc2[nH]c3ccccc3c12.O=P(O)(O)O (stereo not drawn) [Phosphate salt, Carvedilol dihydrogen phosphate]
- aqueous solubility compared with free base ([5]; in words): much better aqueous solubility than the free base

SMILES: COc1ccccc1OCCNCC(O)COc1cccc2[nH]c3ccccc3c12 (stereo not drawn) [hydrochloride salt of carvedilol, carvedilol hydrochloride]
- solubility in acidic medium ([2]; salt generated in situ in acidic medium simulating gastric fluid): less soluble
